Assay results from patent US8101368B2, “Quantitation of cellular DNA and cell numbers using element labeling” (DVS Sciences Inc., priority 2006, dated 2012).

What was measured:
[1] = system: KG-1a cells; assay: Viability with trypan blue of cells cultured in Pd-supplemented media; type: cell-based; conditions: 500 ppb Pd in growth media, 72 hours
Method: (§1) The experiment was set up to investigate if metals passively accumulated by cells could be indicative of cell number and cell type. For this purpose two different leukemia cell lines were cultured for 72 hours in growth media supplemented with very low amounts of rare earth metals: 100 ppb Rh was added to MBA-1 cells, and 500 ppb Pd was added to KG-1a cells which express the cell surface marker. During the three days of cell culture, aliquots of cells were tested for viability with trypan blue. […] Cells were collected by centrifugation (1200 rpm, 10 minutes), washed once in PBS/10% FBS and counted in a hemocytometer. Serial dilutions were prepared to give 1×10^6, 0.5×10^6, 1×10^5, 1×10^4, 1×10^3, and 1×10^2 KG-1a cells in a population of MBA-1 cells (1×10^6) per tube in triplicates (Table 1). In this example Pd will reflect the number of KG-1a cells and the presence of surface marker CD34 will specify the cell type, while MBA-1 cells are marked by Rh. Immunolabeling was carried out by adding anti-CD34 antibodies to tubes containing decreasing amounts of live KG-1a cells and incubating for 45 minutes on ice. Negative control tubes were reacted with the IgG1 isotype control immunoglobulins. After three low speed centrifugation washes with PBS/10% FBS all samples were incubated with biotinylated anti-mouse antibodies. […]

[2] = system: MBA-1 cells; assay: Viability with trypan blue of cells cultured in Rh-supplemented media; type: cell-based; conditions: 100 ppb Rh in growth media, 72 hours
Method: as §1

[3] = system: MBA-1 cells
Method: Reactivity of the Rh(III) metallointercalator with fixed and fixed/permeabilized versus live cells was also examined. Equal amounts of MBA-1 cells (1×10^6) were either fixed/permeabilized as above, fixed in 3.7% formaldehyde alone or left untreated (live cells). After two washes in PBS the cells were incubated with 200 uM [Rh(phi)2bpy]Cl3 for 30 minutes; washed three more times and dissolved in HCl.

[4] = system: DNA; conditions: rhodium/base pair ratios of 2:1; cited from earlier work
[5] = system: MBA-1 cells; assay: Binding of increasing concentrations of Rh(III) intercalator to fixed/permeabilized cells, ICP-MS; type: cell-based; conditions: 2.5 nanoM to 250 microM, 45 minutes, 1×10^6 fixed/permeabilized cells; linear response
Method: Binding of an intercalator to DNA is governed by the law of mass action. Assuming that a mammalian cell in G1 phase has 3.3×10^9 DNA base pairs of which only 10-70% are free from protein interaction (nucleosomes) and available for binding with the intercalator (one molecule per two base pairs at saturation), the number of molecules of dye needed is approximately 1-10×10^8. Thus for [Rh(phi)2bpy]Cl3, with 671 MW, 1 ml of 200 uM solution should be 100-fold excess of intercalator over DNA binding sites for 1×10^6 cells. The binding of various amounts of the Rh(III) intercalator with cultured cells was assessed. MBA-1 cells were fixed in 3.7% formaldehyde/PBS for 15 minutes, followed by permeabilization with 0.3% TRITON™ X-100/PBS; washed once with PBS and incubated for 45 minutes with 1 ml of increasing concentrations of [Rh(phi)2bpy]Cl3 from 2.5 nanoM to 250 microM. Each sample contained 1×10^6 cells, run in triplicates. Following washing, the cell pellets were treated with concentrated HCl, mixed with an equal volume of 1 ppb Ir internal standard, and analyzed in solution by ICP-MS.

[6] = system: K562 cells; assay: Cell cycle synchronization checked by propidium iodide flow cytometry; type: cell-based
Method: Cells were synchronized in G1/S and G2/M phases of the cell cycle using a DNA synthesis inhibitor, thymidine, followed by a mitotic inhibitor, nocodazole. The DNA content of the G0/G1 phase is centered at 2n. Treatment with double thymidine results in a G1/S-phase arrested cell population with approximately […]. Nocodazole addition following a single thymidine treatment arrests cells in the G2/M stage with 4n DNA content. K562 cells were treated with 2 mM thymidine added to culture medium for 17 hours. The cells were then washed and incubated in fresh media for 9 hours. At the end of this rest period the culture was split into two flasks—one received the second dose of 2 mM thymidine (double thymidine block) to arrest cells at G1/S; the other—0.2 ug/ml nocodazole (single thymidine-nocodazole block) to arrest cells at the M phase. The inhibitors were left in culture media for 17 hours. […] After several washes the cells were digested in concentrated HCl and analyzed by ICP-MS. […] Treatment of stained cells with enzymes shifts the detected Rh values due to enhanced binding of metallointercalator to naked DNA. […] In the case of RNAse A treatment—degradation of small RNA molecules bound to DNA such as siRNA that may block interaction of intercalator and DNA may lead to higher detected Rh values.

With `[Pd]` [Pd, palladium] as the compound, how does the “Cell death due to presence of metal in media” value [1] read?
Its value is “No excessive cell death”.

With `[Rh]` [Rh, rhodium] as the compound, how does the “Cell death due to presence of metal in media” value [2] read?
Its value is “No excessive cell death”.

Which results are given for `[Cl-].[Cl-].[Cl-].[NH-]c1c([NH-])c2ccccc2c2ccccc12.[NH-]c1c([NH-])c2ccccc2c2ccccc12.[Rh].c1ccc(-c2ccccn2)nc1` [[Rh(phi)2bpy]Cl3]?
Membrane permeability in live cells [3]: membrane impermeable; Sequence dependence of binding to DNA [4]: sequence neutral and random; Saturation of DNA binding (normalized Rh signal response) [5]: without reaching a saturation limit

With `COC(=O)Nc1nc2ccc(C(=O)c3cccs3)cc2[nH]1` [nocodazole] as the compound, how does the “Cell cycle phase after block” value ([6]; single thymidine-nocodazole block, 0.2 ug/ml nocodazole, 17 hours) read?
Its value is “practically all cells were in M phase”.

With `Cc1cn([C@H]2C[C@H](O)[C@@H](CO)O2)c(=O)[nH]c1=O` [thymidine] as the compound, how does the “Cell cycle phase after block” value ([6]; double thymidine block, 2 mM, 17 hours each) read?
Its value is “majority of cells were in G1/S”.
